Patent US9012200B2, “Composition of bacterial strains, bioremediation mixture and use of this composition for the removal of contaminants from the soil and the method for purifying the soil contaminants” (priority 2012, dated 2015)
≈ marks a conversion by molar mass, not a printed value. Read-outs that look alike come from different tables or passages of the source.

Columns and labels:
[1] = test system: model strain Escherichia coli; details: according to Spain, 2003; cited from earlier work
[2] = test system: investigated strains of bacteria; assay type: cell-based
[3] = test system: Stenotrophomonas sp. strain 6L; assay type: cell-based
[4] = test system: Stenotrophomonas sp. strain 5L; assay type: cell-based
[5] = test system: Brevundimonas sp. strain 2N; assay type: cell-based
[6] = test system: Pseudomonas sp. strain 4G; assay type: cell-based
[7] = test system: Stenotrophomonas sp. strain 3N; assay type: cell-based
[8] = test system: Arthrobacter sp. strain 1N; assay type: cell-based
[9] = test system: Pseudomonas sp. strain 3G; assay type: cell-based; details: 24 h
[10] = test system: Brevundimonas sp. strain 6N; assay type: cell-based
[11] = test system: Achromobacter sp. strain 4P; assay type: cell-based
[12] = test system: Brevundimonas sp. strain 5N; assay type: cell-based
[13] = test system: Stenotrophomonas sp. strain 2L; assay type: cell-based
[14] = test system: Stenotrophomonas sp. strain 3N; assay: Disc diffusion antibiotic susceptibility; assay type: cell-based
Procedure: (§1) A disc diffusion method was performed to determine the susceptibility of bacteria to the selected antibiotics. We used discs soaked with the antibiotic of a well-defined concentration (BioMerioux) (Table 2) and the minimal inhibitory concentration test was carried out, using E-tests (Oxoid) (Table 3).
(§2) A McFarland's 0.5 inoculum was prepared from each strain's culture, using a densitometer (EMO). Then, using sterile cotton swabs, the suspension of bacterial cells was spread on dishes with ready-to-use MHA medium (Oxoid), and after 15 minutes, discs soaked with antibiotics at defined concentrations were placed on them.
(§3) The dishes were incubated at 25-30° C., and the results were read after 24 and 48 hours. The measure of susceptibility of a tested strain to a given antibiotic was the size of the inhibition zone which formed around the disc soaked with the antibiotic. The results read (sizes of zones measured in mm) were compared with the data contained in the European Committee on Antimicrobial Susceptibility Testing (EUCAST) standards from 2010 (Table 4).
(§4) The measure of susceptibility of the tested bacterial strain to a given antibiotic was the size of the inhibition zone which formed around the disc (Table 5).

[15] = test system: Pseudomonas sp. strain 4G; assay: Disc diffusion antibiotic susceptibility; assay type: cell-based
Procedure: as §1, §2, §3, §4

[16] = test system: Stenotrophomonas sp. strain 2L; assay: Disc diffusion antibiotic susceptibility; assay type: cell-based
Procedure: as §1, §2, §3, §4

[17] = test system: Stenotrophomonas sp. strain 5L; assay: Disc diffusion antibiotic susceptibility; assay type: cell-based
Procedure: as §1, §2, §3, §4

[18] = test system: Pseudomonas sp. strain 3G; assay: Disc diffusion antibiotic susceptibility; assay type: cell-based
Procedure: as §1, §2, §3, §4

[19] = test system: Achromobacter sp. strain 4P; assay: Disc diffusion antibiotic susceptibility; assay type: cell-based
Procedure: as §1, §2, §3, §4

[20] = test system: Brevundimonas sp. strain 6N; assay: Disc diffusion antibiotic susceptibility; assay type: cell-based
Procedure: as §1, §2, §3, §4

[21] = test system: Stenotrophomonas sp. strain 6L; assay: Disc diffusion antibiotic susceptibility; assay type: cell-based
Procedure: as §1, §2, §3, §4

[22] = test system: Brevundimonas sp. strain 2N; assay: Disc diffusion antibiotic susceptibility; assay type: cell-based
Procedure: as §1, §2, §3, §4

[23] = test system: Brevundimonas sp. strain 5N; assay: Disc diffusion antibiotic susceptibility; assay type: cell-based
Procedure: as §1, §2, §3, §4

[24] = test system: Arthrobacter sp. strain 1N; assay: Disc diffusion antibiotic susceptibility; assay type: cell-based
Procedure: as §1, §2, §3, §4

[25] = test system: Stenotrophomonas sp. strain 3N; assay: Antibiotic MIC by E-test; assay type: cell-based; details: Stenotrophomonas, 24 h, read-out: MIC threshold values for a given antibiotic
Procedure: as §1
(§5) In the next stage of the research, MIC values of a given antibiotic for the investigated strains were determined, meaning the lowest concentration of the drug, expressed in mg/L, determined in vitro, which inhibits the growth of bacteria at a defined inoculum density, within a given time (Hryniewicz et at, 2001). These studies allow for the closer determination of the degree of susceptibility of bacteria to the applied antibiotics.
(§6) A bacterial suspension was evenly distributed on dishes with ready-to-use MHA medium (Oxoid), and then plastic testing strips (E-tests) soaked with an antibiotic with a concentration gradient were placed thereon. The dishes were incubated at 25-30° C. for 24 h, and the test results were read after this time.
(§7) The intersection of elliptical zone of inhibition, which appeared around the test strip, with the value indicator on the gradient scale of the strip, determined the lowest concentration of antibiotic, inhibiting growth of the microorganism (MIC). Similarly as in the disc diffusion method, the obtained results were compared with the guidelines contained in the relevant standards.

[26] = test system: Pseudomonas sp. strain 4G; assay: Antibiotic MIC by E-test; assay type: cell-based; details: Pseudomonas, 24 h, read-out: MIC threshold values for a given antibiotic
Procedure: as §1, §5, §6, §7

[27] = test system: Stenotrophomonas sp. strain 2L; assay: Antibiotic MIC by E-test; assay type: cell-based; details: Stenotrophomonas, 24 h, read-out: MIC threshold values for a given antibiotic
Procedure: as §1, §5, §6, §7

[28] = test system: Stenotrophomonas sp. strain 5L; assay: Antibiotic MIC by E-test; assay type: cell-based; details: Stenotrophomonas, 24 h, read-out: MIC threshold values for a given antibiotic
Procedure: as §1, §5, §6, §7

[29] = test system: Pseudomonas sp. strain 3G; assay: Antibiotic MIC by E-test; assay type: cell-based; details: Pseudomonas, 24 h, read-out: MIC threshold values for a given antibiotic
Procedure: as §1, §5, §6, §7

[30] = test system: Achromobacter sp. strain 4P; assay: Antibiotic MIC by E-test; assay type: cell-based; details: Achromobacter; strain 4P, E-test, 24 h; read-out: MIC threshold values for a given antibiotic
Procedure: as §1, §5, §6, §7

[31] = test system: Brevundimonas sp. strain 6N; assay: Antibiotic MIC by E-test; assay type: cell-based; details: Brevundimonas, 24 h, read-out: MIC threshold values for a given antibiotic
Procedure: as §1, §5, §6, §7

[32] = test system: Stenotrophomonas sp. strain 6L; assay: Antibiotic MIC by E-test; assay type: cell-based; details: Stenotrophomonas, 24 h, read-out: MIC threshold values for a given antibiotic
Procedure: as §1, §5, §6, §7

[33] = test system: Brevundimonas sp. strain 2N; assay: Antibiotic MIC by E-test; assay type: cell-based; details: Brevundimonas, 24 h, read-out: MIC threshold values for a given antibiotic
Procedure: as §1, §5, §6, §7

[34] = test system: Brevundimonas sp. strain 5N; assay: Antibiotic MIC by E-test; assay type: cell-based; details: Brevundimonas, 24 h, read-out: MIC threshold values for a given antibiotic
Procedure: as §1, §5, §6, §7

[35] = test system: Arthrobacter sp. strain 1N; assay: Antibiotic MIC by E-test; assay type: cell-based; details: Arthrobacter; strain 1N, E-test, 24 h; read-out: MIC threshold values for a given antibiotic
Procedure: as §1, §5, §6, §7

Structure (SMILES)	MIC [1] [mM/L]	Susceptibility of the investigated strains to the heavy metal [2]	Size of the growth inhibition zone ([14]; 24 h) [mm]	Size of the growth inhibition zone ([15]; 24 h) [mm]	Size of the growth inhibition zone ([16]; 24 h) [mm]	Size of the growth inhibition zone ([17]; 24 h) [mm]	Size of the growth inhibition zone ([18]; 24 h) [mm]	Size of the growth inhibition zone ([19]; 24 h) [mm]	Size of the growth inhibition zone ([20]; 24 h) [mm]	Size of the growth inhibition zone ([21]; 24 h) [mm]	Size of the growth inhibition zone ([22]; 24 h) [mm]	Size of the growth inhibition zone ([23]; 24 h) [mm]	Size of the growth inhibition zone ([24]; 24 h) [mm]	MIC [25] [µg/mL]	MIC [26] [µg/mL]	MIC [27] [µg/mL]	MIC [28] [µg/mL]	MIC [29] [µg/mL]	MIC [30] [µg/mL]	MIC [31] [µg/mL]	also measured
[K+].[K+].[O]=[Cr](=[O])([O-])[O][Cr](=[O])(=[O])[O-] [Cr(VI), Potassium dichromate]	0.2	resistant																			
O=S(=O)([O-])[O-].[Cu+2] [Cu(II), Copper sulphate]	1	resistant																			MIC threshold values of heavy metals [3]: 3(4) mM/L; MIC threshold values of heavy metals [4]: 3 mM/L; MIC threshold values of heavy metals [5]: 3(4) mM/L; MIC threshold values of heavy metals ([6]; 24 h): 3 mM/L; MIC threshold values of heavy metals ([6]; 48 h): 4 mM/L; MIC threshold values of heavy metals [7]: 3(4) mM/L; MIC threshold values of heavy metals [8]: 3 mM/L; MIC threshold values of heavy metals [9]: 3 mM/L; MIC threshold values of heavy metals [10]: 3(4) mM/L; MIC threshold values of heavy metals [11]: 3 mM/L; MIC threshold values of heavy metals [12]: 3(4) mM/L; MIC threshold values of heavy metals [13]: 3 mM/L
CC[C@H]1OC(=O)[C@H](C)[C@@H](O[C@H]2C[C@@](C)(OC)[C@@H](O)[C@H](C)O2)[C@H](C)[C@@H](O[C@@H]2O[C@H](C)C[C@H](N(C)C)[C@H]2O)[C@](C)(O)C[C@@H](C)C(=O)[C@H](C)[C@@H](O)[C@]1(C)O [E, erythromycin]			0	0	0	0	0	0	0	0	0	0	0	≥ 256	≥ 256	≥ 256	≥ 256	≥ 256	256 (≈ 349 µM)	256 (≈ 349 µM)	MIC [32]: ≥ 256 µg/mL; MIC [33]: 128 µg/mL (≈ 174 µM); MIC [34]: 256 µg/mL (≈ 349 µM); MIC [35]: 256 µg/mL (≈ 349 µM)
CN(C)[C@@H]1C(O)=C(C(N)=O)C(=O)[C@@]2(O)C(O)=C3C(=O)c4c(O)cccc4[C@@](C)(O)[C@H]3C[C@@H]12 [TE, tetracycline]			19	19	17	19	17	19	17	17	18	18	17	6 (≈ 13.5 µM)	6 (≈ 13.5 µM)	6 (≈ 13.5 µM)	8 (≈ 18 µM)	6 (≈ 13.5 µM)	12 (≈ 27 µM)	6 (≈ 13.5 µM)	Size of the growth inhibition zone ([14]; 48 h): 0 mm; Size of the growth inhibition zone ([15]; 48 h): 0 mm; Size of the growth inhibition zone ([16]; 48 h): 0 mm; Size of the growth inhibition zone ([17]; 48 h): 0 mm; Size of the growth inhibition zone ([18]; 48 h): 0 mm; Size of the growth inhibition zone ([19]; 48 h): 0 mm; Size of the growth inhibition zone ([20]; 48 h): 0 mm; Size of the growth inhibition zone ([21]; 48 h): 0 mm; Size of the growth inhibition zone ([22]; 48 h): 0 mm; Size of the growth inhibition zone ([23]; 48 h): 0 mm; Size of the growth inhibition zone ([24]; 48 h): 0 mm; MIC [32]: 6 µg/mL (≈ 13.5 µM); MIC [33]: 6 µg/mL (≈ 13.5 µM); MIC [34]: 6 µg/mL (≈ 13.5 µM); MIC [35]: 6 µg/mL (≈ 13.5 µM)
